{"source": "paper PMC9203742", "about": "(Nature Communications, 2022)", "key": {"[1]": {"system": "GFP-positive Purkinje cells infected with AAV-L7-mGlu1^CBC", "experiment": "chemLTD recording in GFP-positive Purkinje cells, slices infected with AAV-L7-mGlu1^CBC", "assay_type": "cell-based, mouse", "details": "AAV-L7-mGlu1CBC"}, "[2]": {"system": "MLIs infected with AAV-hSyn-mGlu1^CBC", "experiment": "sAP-mediated currents (firing rate) of MLIs infected with AAV-hSyn-mGlu1^CBC", "assay_type": "cell-based, mouse", "details": "10 μM Pd(sulfo-bpy); P = 4.613 × 10^–5", "experimental": "To monitor the excitability of MLIs, sAP-mediated current responses were extracellulary recorded by a loose cell-attached voltage-clamp at a holding potential of 0 mV. Glass electrodes used for cell-attached recordings had resistances of 3–5 MΩ when filled with ACSF. The current recordings from AAV-infected cells were performed 1−2 weeks after infection. The EPSCs and sAP-mediated currents were recorded using an Axopatch 200B amplifier (Molecular Devices), and the pClamp system (version 9.2; Molecular Devices) was used for data acquisition and analysis. The signals were filtered at 1 kHz and digitized at 4 kHz for the evoked EPSCs and 10 kHz for the sAP-mediated currents.\nInjection of viral solutions was performed as described previously with slight modifications. Briefly, under deep anesthesia, with an intraperitoneal injection of medetomidine (0.3 mg/kg), midazolam (4.0 mg/kg), and butorphanol (5.0 mg/kg), 4 µL of the solutions containing AAV mixture were directly injected into the vermis of cerebellar lobules V-VIII (200-300 µm in depth, 12 µL/h in rate) of WT mice (C57BL/6J, P20-P30) using glass pipette (30–40 µm in diameter) and microinjector (Nanoliter; World Precision Instruments). In all, 1−2 week after injection, the mice were used for each experiment."}, "mGlu1(N264H) mutant": {"molecular_target": "T1, mGlu1(N264H) mutant (Rattus norvegicus, UniProt P23385, N264H)", "T1 construct": "expressed in transfected cells; host or cells: HEK293", "T1 sequence (P23385 19-1199 N264H)": "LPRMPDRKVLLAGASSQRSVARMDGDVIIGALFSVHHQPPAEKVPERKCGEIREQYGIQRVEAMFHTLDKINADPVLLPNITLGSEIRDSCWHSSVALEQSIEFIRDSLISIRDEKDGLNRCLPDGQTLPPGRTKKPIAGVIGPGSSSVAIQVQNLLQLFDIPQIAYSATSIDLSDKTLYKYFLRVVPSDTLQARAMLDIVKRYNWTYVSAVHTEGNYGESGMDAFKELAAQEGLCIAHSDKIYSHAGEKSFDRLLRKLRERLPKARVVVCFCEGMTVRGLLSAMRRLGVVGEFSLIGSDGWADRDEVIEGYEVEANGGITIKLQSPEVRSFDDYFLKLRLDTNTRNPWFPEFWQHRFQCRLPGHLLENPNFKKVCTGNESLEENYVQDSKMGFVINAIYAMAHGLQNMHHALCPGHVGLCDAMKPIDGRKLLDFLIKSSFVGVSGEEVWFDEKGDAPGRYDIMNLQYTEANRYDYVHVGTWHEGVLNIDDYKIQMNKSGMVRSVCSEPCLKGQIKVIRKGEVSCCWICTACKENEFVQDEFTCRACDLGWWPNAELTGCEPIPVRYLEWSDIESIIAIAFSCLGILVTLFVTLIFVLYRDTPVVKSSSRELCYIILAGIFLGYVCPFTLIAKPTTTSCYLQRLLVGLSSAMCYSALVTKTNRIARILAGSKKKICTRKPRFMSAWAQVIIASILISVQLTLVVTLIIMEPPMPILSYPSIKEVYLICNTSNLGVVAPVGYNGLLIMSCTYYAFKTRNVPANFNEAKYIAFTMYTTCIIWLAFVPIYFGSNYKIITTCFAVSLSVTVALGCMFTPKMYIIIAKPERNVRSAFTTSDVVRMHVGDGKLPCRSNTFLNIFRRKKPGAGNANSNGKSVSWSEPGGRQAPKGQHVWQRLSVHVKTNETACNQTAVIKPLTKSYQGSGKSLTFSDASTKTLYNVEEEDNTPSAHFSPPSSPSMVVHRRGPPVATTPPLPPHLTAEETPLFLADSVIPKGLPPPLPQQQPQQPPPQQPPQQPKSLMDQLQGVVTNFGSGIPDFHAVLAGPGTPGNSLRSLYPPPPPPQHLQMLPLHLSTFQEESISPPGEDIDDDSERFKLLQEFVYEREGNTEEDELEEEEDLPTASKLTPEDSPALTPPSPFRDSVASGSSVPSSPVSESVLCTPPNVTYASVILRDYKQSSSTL", "experiment": "Fura-2 Ca2+ imaging in HEK293 cells expressing mGlu1(N264H)", "assay_type": "cell-based"}}, "note": "Several values for one entry are separate records, joined by “and”; a condition that tells them apart may be missing. Equal values may be shown once."}
{"compound": "Cc1ccnc(-c2cc(COCCCS(=O)(=O)[O-])ccn2)c1.[Cl][Pd][Cl].[Na+]", "note": "[Pd(sulfo-bpy)]", "values": [{"measurement": "PF-EPSC amplitude normalized to time 0, mean of cells", "setting": "[1]; Time 17 min", "value": 0.7319}, {"measurement": "PF-EPSC amplitude normalized to time 0, individual Purkinje cells", "setting": "[1]; Time 18 min", "value": "0.6181 and 0.7827 and 0.9415 and 0.633 and 0.8865 and 0.5391 and 0.791"}, {"measurement": "PF-EPSC amplitude normalized to time 0, mean of cells", "setting": "[1]; Time 18 min", "value": 0.7417}, {"measurement": "PF-EPSC amplitude normalized to time 0, individual Purkinje cells", "setting": "[1]; Time 19 min", "value": "0.6525 and 0.7374 and 0.8732 and 0.5834 and 0.9022 and 0.5765 and 0.7947"}, {"measurement": "PF-EPSC amplitude normalized to time 0, mean of cells", "setting": "[1]; Time 19 min", "value": 0.7314}, {"measurement": "PF-EPSC amplitude normalized to time 0, individual Purkinje cells", "setting": "[1]; Time 20 min", "value": "0.6393 and 0.699 and 0.8317 and 0.5962 and 0.9401 and 0.5543 and 0.7516"}, {"measurement": "PF-EPSC amplitude normalized to time 0, mean of cells", "setting": "[1]; Time 20 min", "value": 0.716}, {"measurement": "PF-EPSC amplitude normalized to time 0, individual Purkinje cells", "setting": "[1]; Time 21 min", "value": "0.6574 and 0.7237 and 1.073 and 0.5004 and 0.9213 and 0.5453 and 0.8183"}, {"measurement": "PF-EPSC amplitude normalized to time 0, mean of cells", "setting": "[1]; Time 21 min", "value": 0.7484}, {"measurement": "PF-EPSC amplitude normalized to time 0, individual Purkinje cells", "setting": "[1]; Time 22 min", "value": "0.698 and 0.6854 and 0.7706 and 0.5876 and 1.007 and 0.5965 and 0.7681"}, {"measurement": "PF-EPSC amplitude normalized to time 0, mean of cells", "setting": "[1]; Time 22 min", "value": 0.7305}, {"measurement": "PF-EPSC amplitude normalized to time 0, individual Purkinje cells", "setting": "[1]; Time 23 min", "value": "0.6936 and 0.7382 and 0.9273 and 0.5926 and 0.9601 and 0.5241 and 0.7745"}, {"measurement": "PF-EPSC amplitude normalized to time 0, mean of cells", "setting": "[1]; Time 23 min", "value": 0.7443}, {"measurement": "PF-EPSC amplitude normalized to time 0, individual Purkinje cells", "setting": "[1]; Time 24 min", "value": "0.6834 and 0.653 and 0.9054 and 0.6969 and 0.9426 and 0.569 and 0.7678"}, {"measurement": "PF-EPSC amplitude normalized to time 0, mean of cells", "setting": "[1]; Time 24 min", "value": 0.7455}, {"measurement": "PF-EPSC amplitude normalized to time 0, individual Purkinje cells", "setting": "[1]; Time 25 min", "value": "0.6421 and 0.6906"}, {"measurement": "PF-EPSC amplitude normalized to time 0, mean of cells", "setting": "[1]; Time 25 min", "value": 0.7344}, {"measurement": "PF-EPSC amplitude normalized to time 0, mean of cells", "setting": "[1]; Time 26 min", "value": 0.7041}, {"measurement": "PF-EPSC amplitude normalized to time 0, mean of cells", "setting": "[1]; Time 27 min", "value": 0.6979}, {"measurement": "PF-EPSC amplitude normalized to time 0, mean of cells", "setting": "[1]; Time 28 min", "value": 0.6908}, {"measurement": "PF-EPSC amplitude normalized to time 0, mean of cells", "setting": "[1]; Time 29 min", "value": 0.7115}, {"measurement": "PF-EPSC amplitude normalized to time 0, mean of cells", "setting": "[1]; Time 30 min", "value": 0.7}, {"measurement": "PF-EPSC amplitude normalized to time 0, mean of cells", "setting": "[1]; Time 31 min", "value": 0.6852}, {"measurement": "PF-EPSC amplitude normalized to time 0, mean of cells", "setting": "[1]; Time 32 min", "value": 0.6868}, {"measurement": "PF-EPSC amplitude normalized to time 0, mean of cells", "setting": "[1]; Time 33 min", "value": 0.6788}, {"measurement": "PF-EPSC amplitude normalized to time 0, mean of cells", "setting": "[1]; Time 34 min", "value": 0.6319}, {"measurement": "PF-EPSC amplitude normalized to time 0, mean of cells", "setting": "[1]; Time 35 min", "value": 0.6255}, {"measurement": "Firing rate of MLIs", "setting": "[2]", "value": "increased the firing rate"}, {"measurement": "Ca2+ response, concentration dependence (Fig.4f)", "setting": "mGlu1(N264H) mutant; 0.01 µM Pd complex", "value": 0.001442}, {"measurement": "Ca2+ response, concentration dependence (Fig.4f)", "setting": "mGlu1(N264H) mutant; 0.03 µM Pd complex", "value": -0.01191}, {"measurement": "Ca2+ response, concentration dependence (Fig.4f)", "setting": "mGlu1(N264H) mutant; 0.1 µM Pd complex", "value": -0.00118}, {"measurement": "Ca2+ response, concentration dependence (Fig.4f)", "setting": "mGlu1(N264H) mutant; 0.3 µM Pd complex", "value": 0.1279}, {"measurement": "Ca2+ response, concentration dependence (Fig.4f)", "setting": "mGlu1(N264H) mutant; 1 µM Pd complex", "value": 0.241}, {"measurement": "Ca2+ response, concentration dependence (Fig.4f)", "setting": "mGlu1(N264H) mutant; 3 µM Pd complex", "value": 0.3078}, {"measurement": "Receptor activation (Ca2+ response, Δratio)", "setting": "mGlu1(N264H) mutant; 3 μM Pd(bpy) derivative", "value": "successfully activated"}, {"measurement": "Ca2+ response, concentration dependence (Fig.4f)", "setting": "mGlu1(N264H) mutant; 10 µM Pd complex", "value": 0.4466}, {"measurement": "Ca2+ response, concentration dependence (Fig.4f)", "setting": "mGlu1(N264H) mutant; 30 µM Pd complex", "value": 0.3481}, {"measurement": "EC50", "setting": "mGlu1(N264H) mutant; HEK293 cells, Fura-2, read-out: EC50, Ca2+ response (Δratio)", "value": 0.62, "unit": "µM"}, {"measurement": "Ca2+ response to Pd complex, individual cells #1-#20 (Fig.4e)", "setting": "mGlu1(N264H) mutant; single-cell values", "value": "0.8899 and 0.2578 and 0.9132 and -0.001662 and 0.6326 and 0.4158 and 0.6574 and 1.139 and -0.004669 and -0.01576 and 0.5967 and 0.1275 and -0.001162 and 0.09754 and -0.01851 and 1.312 and 1.093 and 0.7225 and 0.4683 and -0.003462"}]}
